Measurements from PubChem BioAssay AID2060491 (Molecular Pharmacology Branch, DTP, NCI, 2025).

Test system: 857933-349-R-J2-PDC complex spheroids, viability
Assay: Anticancer human tumor 857933-349-R-J2-PDC patient-derived colon adenocarcinoma cell line growth inhibition [GQUAD]
Conditions: for IC50: curve of first compound; for viability, T/C: stronger effect = lower value
Outline: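 Viability of tumor cells grown as complex spheroids with endothelial and stromal cells, exposed to drug combinations. Top concentration at or near clinical Cmax (else 10 microM), diluted in half-log increments.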

[1] = second compound 0.0316 µM, first compound 0.0316 µM
[2] = second compound 0.0316 µM, first compound 0.1 µM
[3] = second compound 0.0316 µM, first compound 0.316 µM
[4] = second compound 0.0316 µM, first compound 1 µM
[5] = second compound 0.0316 µM, first compound 3.16 µM
[6] = second compound 0.0316 µM, first compound 10 µM
[7] = second compound 0.1 µM, first compound 0.0316 µM
[8] = second compound 0.1 µM, first compound 0.1 µM
[9] = second compound 0.1 µM, first compound 0.316 µM
[10] = second compound 0.1 µM, first compound 1 µM
[11] = second compound 0.1 µM, first compound 3.16 µM
[12] = second compound 0.1 µM, first compound 10 µM
[13] = second compound 0.316 µM, first compound 0.0316 µM
[14] = second compound 0.316 µM, first compound 0.1 µM
[15] = second compound 0.316 µM, first compound 0.316 µM
[16] = second compound 0.316 µM, first compound 1 µM
[17] = second compound 0.316 µM, first compound 3.16 µM
[18] = second compound 0.316 µM, first compound 10 µM
[19] = second compound 1 µM, first compound 0.0316 µM
[20] = second compound 1 µM, first compound 0.1 µM
[21] = second compound 1 µM, first compound 0.316 µM
[22] = second compound 1 µM, first compound 1 µM
[23] = second compound 1 µM, first compound 3.16 µM
[24] = second compound 1 µM, first compound 10 µM
[25] = second compound 3.16 µM, first compound 0.0316 µM
[26] = second compound 3.16 µM, first compound 0.1 µM
[27] = second compound 3.16 µM, first compound 0.316 µM
[28] = second compound 3.16 µM, first compound 1 µM
[29] = second compound 3.16 µM, first compound 3.16 µM
[30] = second compound 3.16 µM, first compound 10 µM
[31] = second compound 10 µM, first compound 0.0316 µM
[32] = second compound 10 µM, first compound 0.1 µM
[33] = second compound 10 µM, first compound 0.316 µM
[34] = second compound 10 µM, first compound 1 µM
[35] = second compound 10 µM, first compound 3.16 µM
[36] = second compound 10 µM, first compound 10 µM
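Also: spheroids exposed to compounds for one week before readout.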
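For viability, T/C in this document: percent viability relative to vehicle DMSO wells taken as 100%.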

C#Cc1c(F)ccc2cc(O)cc(-c3ncc4c(N5CC6CCC(C5)N6)nc(OCC56CCCN5CC(F)C6)nc4c3F)c12 (stereo not drawn) + CN(C)c1ccc(Nc2c3ccc(NC(=O)CCN4CCCC4)cc3nc3cc(NC(=O)CCN4CCCC4)ccc23)cc1
IC50 (second compound 0.0316 µM): > 10 µM | IC50 (second compound 0.1 µM): > 10 µM | IC50 (second compound 0.316 µM): > 10 µM | IC50 (second compound 1 µM): > 10 µM | IC50 (second compound 3.16 µM): > 10 µM | IC50 (second compound 10 µM): > 10 µM | viability, T/C [1]: 111% | viability, T/C [2]: 96.2% | viability, T/C [3]: 98.1% | viability, T/C [4]: 96.8% | viability, T/C [5]: 102% | viability, T/C [6]: 90.3% | viability, T/C [7]: 104% | viability, T/C [8]: 104% | viability, T/C [9]: 96.1% | viability, T/C [10]: 101% | viability, T/C [11]: 94.3% | viability, T/C [12]: 94.6% | viability, T/C [13]: 99.1% | viability, T/C [14]: 97% | viability, T/C [15]: 95.5% | viability, T/C [16]: 92% | viability, T/C [17]: 96.2% | viability, T/C [18]: 87% | viability, T/C [19]: 97.1% | viability, T/C [20]: 88.7% | viability, T/C [21]: 91.3% | viability, T/C [22]: 77.8% | viability, T/C [23]: 91.4% | viability, T/C [24]: 80.3% | viability, T/C [25]: 81.6% | viability, T/C [26]: 75.1% | viability, T/C [27]: 80.6% | viability, T/C [28]: 69.7% | viability, T/C [29]: 78.2% | viability, T/C [30]: 74.7% | viability, T/C [31]: 67.4% | viability, T/C [32]: 67.5% | viability, T/C [33]: 63.5% | viability, T/C [34]: 68.8% | viability, T/C [35]: 71% | viability, T/C [36]: 58.9%

CC(=O)O[C@H]1C(=O)[C@@]2(C)[C@H]([C@H](OC(=O)c3ccccc3)[C@]3(O)C[C@H](OC(=O)[C@H](O)[C@@H](NC(=O)c4ccccc4)c4ccccc4)C(C)=C1C3(C)C)[C@]1(OC(C)=O)CO[C@@H]1C[C@@H]2O + CN(C)c1ccc(Nc2c3ccc(NC(=O)CCN4CCCC4)cc3nc3cc(NC(=O)CCN4CCCC4)ccc23)cc1
IC50 (second compound 0.0316 µM): 0.0663 µM | IC50 (second compound 0.1 µM): 0.0627 µM | IC50 (second compound 0.316 µM): 0.0621 µM | IC50 (second compound 1 µM): 0.0602 µM | IC50 (second compound 3.16 µM): 0.0551 µM | IC50 (second compound 10 µM): < 0.0316 µM | viability, T/C [1]: 75% | viability, T/C [2]: 36% | viability, T/C [3]: 22.3% | viability, T/C [4]: 23.4% | viability, T/C [5]: 23.6% | viability, T/C [6]: 27.1% | viability, T/C [7]: 75.5% | viability, T/C [8]: 33.7% | viability, T/C [9]: 22.2% | viability, T/C [10]: 23% | viability, T/C [11]: 22.6% | viability, T/C [12]: 26.4% | viability, T/C [13]: 70.9% | viability, T/C [14]: 35.2% | viability, T/C [15]: 19.6% | viability, T/C [16]: 20.5% | viability, T/C [17]: 24% | viability, T/C [18]: 27.2% | viability, T/C [19]: 71.6% | viability, T/C [20]: 33% | viability, T/C [21]: 22.1% | viability, T/C [22]: 21.3% | viability, T/C [23]: 26.2% | viability, T/C [24]: 26.8% | viability, T/C [25]: 67.4% | viability, T/C [26]: 31.6% | viability, T/C [27]: 26% | viability, T/C [28]: 24.5% | viability, T/C [29]: 27.2% | viability, T/C [30]: 30.9% | viability, T/C [31]: 54.9% | viability, T/C [32]: 43.9% | viability, T/C [33]: 38.6% | viability, T/C [34]: 33.4% | viability, T/C [35]: 34.3% | viability, T/C [36]: 41.4%

CCCS(=O)(=O)Nc1ccc(F)c(C(=O)c2c[nH]c3ncc(-c4ccc(Cl)cc4)cc23)c1F + CN(C)c1ccc(Nc2c3ccc(NC(=O)CCN4CCCC4)cc3nc3cc(NC(=O)CCN4CCCC4)ccc23)cc1
IC50 (second compound 0.0316 µM): 5.65 µM | IC50 (second compound 0.1 µM): 5.53 µM | IC50 (second compound 0.316 µM): 5.65 µM | IC50 (second compound 1 µM): 5.45 µM | IC50 (second compound 3.16 µM): 5.03 µM | IC50 (second compound 10 µM): 3.18 µM | viability, T/C [1]: 108% | viability, T/C [2]: 101% | viability, T/C [3]: 102% | viability, T/C [4]: 96.8% | viability, T/C [5]: 95.5% | viability, T/C [6]: 5.26% | viability, T/C [7]: 110% | viability, T/C [8]: 106% | viability, T/C [9]: 96.4% | viability, T/C [10]: 106% | viability, T/C [11]: 92.5% | viability, T/C [12]: 5.04% | viability, T/C [13]: 104% | viability, T/C [14]: 101% | viability, T/C [15]: 96.5% | viability, T/C [16]: 96.7% | viability, T/C [17]: 95.3% | viability, T/C [18]: 5.41% | viability, T/C [19]: 101% | viability, T/C [20]: 89.6% | viability, T/C [21]: 96.7% | viability, T/C [22]: 93.1% | viability, T/C [23]: 89.9% | viability, T/C [24]: 5.58% | viability, T/C [25]: 83.5% | viability, T/C [26]: 73.5% | viability, T/C [27]: 81.2% | viability, T/C [28]: 75.8% | viability, T/C [29]: 79.7% | viability, T/C [30]: 7.65% | viability, T/C [31]: 63.1% | viability, T/C [32]: 66.5% | viability, T/C [33]: 56.8% | viability, T/C [34]: 59.1% | viability, T/C [35]: 51% | viability, T/C [36]: 12.3%

O=c1[nH]cc(F)c(=O)[nH]1 + CN(C)c1ccc(Nc2c3ccc(NC(=O)CCN4CCCC4)cc3nc3cc(NC(=O)CCN4CCCC4)ccc23)cc1
IC50 (second compound 0.0316 µM): 7.51 µM | IC50 (second compound 0.1 µM): 9.41 µM | IC50 (second compound 0.316 µM): 8.13 µM | IC50 (second compound 1 µM): 7.14 µM | IC50 (second compound 3.16 µM): 7.56 µM | IC50 (second compound 10 µM): 9.08 µM | viability, T/C [1]: 104% | viability, T/C [2]: 96.8% | viability, T/C [3]: 97% | viability, T/C [4]: 88.7% | viability, T/C [5]: 60.6% | viability, T/C [6]: 46.5% | viability, T/C [7]: 103% | viability, T/C [8]: 105% | viability, T/C [9]: 91.7% | viability, T/C [10]: 86.4% | viability, T/C [11]: 61.3% | viability, T/C [12]: 50% | viability, T/C [13]: 102% | viability, T/C [14]: 96.7% | viability, T/C [15]: 100% | viability, T/C [16]: 83.7% | viability, T/C [17]: 64.8% | viability, T/C [18]: 46.7% | viability, T/C [19]: 95.3% | viability, T/C [20]: 91.8% | viability, T/C [21]: 95.6% | viability, T/C [22]: 77.7% | viability, T/C [23]: 63.6% | viability, T/C [24]: 44.6% | viability, T/C [25]: 92.9% | viability, T/C [26]: 80% | viability, T/C [27]: 92.7% | viability, T/C [28]: 75.1% | viability, T/C [29]: 61.7% | viability, T/C [30]: 46.3% | viability, T/C [31]: 70.9% | viability, T/C [32]: 78.9% | viability, T/C [33]: 77.2% | viability, T/C [34]: 74.4% | viability, T/C [35]: 61.4% | viability, T/C [36]: 49%
